Source: patent publication US11345650B1, “Methods and systems for crystallizing and isolating individual cannabinoids” (MYKU Biosciences LLC, priority 2021, dated 2022)

Test: Minimum concentration of CBD required for crystallization from solution
Assay type: physicochemical
Procedure: The minimum concentration of CBD required for selective crystallization from a solution containing a plurality of cannabinoids was evaluated.
The CBD-rich solution shown in Table A7 was diluted in MCT coconut oil to the aforementioned CBD concentrations. The samples were heated to 60° C. for about five minutes. Then, each solution was subjected to the following nucleation factors: agitation (intense stirring), cold shock (cooling solution to −20° C. and mixing), introduction of a CBD seed crystal, and exposure to a vacuum at a pressure of −25 inHg). Photographs of the crystallized cannabinoids were taken after 24 hours.
The experiment was also repeated using mixtures of cannabinoid CBD and THCa isolates in oleic acid.

## C=C(C)[C@@H]1CCC(C)=C[C@H]1c1c(O)cc(CCCCC)cc1O [CBD, Cannabidiol]
CBD-rich solution with a plurality of cannabinoids diluted in MCT coconut oil, heated to 60° C., agitation, cold shock −20° C., seed crystal, vacuum −25 inHg, after 24 hours
  lowest tested concentration of CBD that exhibited crystallization: 19.6%
Mixtures of CBD and THCa isolates in oleic acid (FIG. 16: 24% CBD, 1% THCA, 75% oleic acid)
  lowest tested concentration of CBD that crystallized: 24%
